# According to article PMC4965013, “Open Source Drug Discovery with the Malaria Box Compound Collection for Neglected Diseases and Beyond” (PLoS Pathogens, 2016):
# Experiments:
# [1] = tested on: P. falciparum 3D7 trophozoites; assay: Metabolomic fingerprint profiling LC-MS; type: cell-based, Plasmodium falciparum; design: UDP-D-glucose / ADP-D-glucose: unit not given here; conditions: for Acetyllysine / N-acetyl-L-ornithine / N-carbamoyl-L-aspartate / NADPH / dAMP / dCMP / dTDP / dTMP / dTTP / dihydroorotate / orotate / DLH / DLS/SDL/SID / PD / PEE / PVNF / 3-phosphoglycerate / ADP-D-glucose / ATP / CDP / D-sedoheptulose-1/7-phosphate / FAD / GMP / NAD+ / NADP+ / Octoluse Bisphosphate / Pyroglutamic acid / UDP-D-glucose / UDP-D-glucuronate / UDP-N-acetyl-glucosamine / UDP / UMP / UTP / a-ketoglutarate / citrate/isocitrate / cytidine / dATP / dGMP/AMP / fumarate / glucose-1/6-phosphate / glycerate / guanine / guanosine / hypoxanthine / indole / inosine / nicotinate / ornithine / phosphoenolpyruvate / pyruvate / ribose-phosphate / sarcosine/alanine / sn-glycerol-3-phosphate / succinate/methylmalonic acid / uridine / xanthosine: S2 Table Metabolomics; for Acetyllysine: metabolite Acetyllysine; for N-acetyl-L-ornithine: metabolite N-acetyl-L-ornithine; for N-carbamoyl-L-aspartate: metabolite N-carbamoyl-L-aspartate; for NADPH: metabolite NADPH; for dAMP: metabolite dAMP; for dCMP: metabolite dCMP; for dTDP: metabolite dTDP; for dTMP: metabolite dTMP; for dTTP: metabolite dTTP; for dihydroorotate: metabolite dihydroorotate; for orotate: metabolite orotate; for DLH: peptide DLH; for DLS/SDL/SID: peptide DLS/SDL/SID; for PD: peptide PD; for PEE: peptide PEE; for PVNF: peptide PVNF; for 3-phosphoglycerate: metabolite 3-phosphoglycerate; for ADP-D-glucose: metabolite ADP-D-glucose; for ATP: metabolite ATP; for CDP: metabolite CDP; for CDP / D-sedoheptulose-1/7-phosphate / GMP / Octoluse Bisphosphate / UDP / UMP / UTP / citrate/isocitrate / dGMP/AMP / fumarate / glucose-1/6-phosphate / glycerate / guanine / guanosine / inosine / pyruvate / sarcosine/alanine / succinate/methylmalonic acid / uridine / xanthosine: change in metabolite level after compound treatment; for D-sedoheptulose-1/7-phosphate: metabolite D-sedoheptulose-1/7-phosphate; for FAD: metabolite FAD; for GMP: metabolite GMP; for NAD+: metabolite NAD+; for NADP+: metabolite NADP+; for Octoluse Bisphosphate: metabolite Octoluse Bisphosphate; for Pyroglutamic acid: metabolite Pyroglutamic acid; for UDP-D-glucose: metabolite UDP-D-glucose; for UDP-D-glucuronate: metabolite UDP-D-glucuronate; for UDP-N-acetyl-glucosamine: metabolite UDP-N-acetyl-glucosamine; for UDP: metabolite UDP; for UMP: metabolite UMP; for UTP: metabolite UTP; for a-ketoglutarate: metabolite a-ketoglutarate; for citrate/isocitrate: metabolite citrate/isocitrate; for cytidine: metabolite cytidine; for dATP: metabolite dATP; for dGMP/AMP: metabolite dGMP/AMP; for fumarate: metabolite fumarate; for glucose-1/6-phosphate: metabolite glucose-1/6-phosphate; for glycerate: metabolite glycerate; for guanine: metabolite guanine; for guanosine: metabolite guanosine; for hypoxanthine: metabolite hypoxanthine; for indole: metabolite indole; for inosine: metabolite inosine; for 2_3-Diphosphoglyceric acid / 4-phosphopantothenate / 6-phospho-D-gluconate / FMN / IMP / Pyrophosphate / Sedoheptoluse bisphosphate / cyclic-AMP / glutathione disulfide / lactate / myo-inositol: metabolite level change after treatment; for nicotinate: metabolite nicotinate; for ornithine: metabolite ornithine; for phosphoenolpyruvate: metabolite phosphoenolpyruvate; for pyruvate: metabolite pyruvate; for ribose-phosphate: metabolite ribose-phosphate; for sarcosine/alanine: metabolite sarcosine/alanine; for sn-glycerol-3-phosphate: metabolite sn-glycerol-3-phosphate; for succinate/methylmalonic acid: metabolite succinate/methylmalonic acid; for uridine: metabolite uridine; for xanthosine: metabolite xanthosine
# P. falciparum = assay: EC50 listed in S2 Table Metabolomics (used to set the concentration tested); type: cell-based; conditions: Plasmodium falciparum; EC50 used for Factor_XEC50 in metabolomics; read-out: EC50_nM
smiles,measurement,setting,value
COc1ccc(-n2ccnc2SCC(=O)Nc2cc(C)ccc2C)c(OC)c1 [MMV019258],Acetyllysine,[1],-0.6249
same,N-acetyl-L-ornithine,[1],-0.6242
same,N-carbamoyl-L-aspartate,[1],3.802
same,NADPH,[1],-0.4851
same,dAMP,[1],-1.834
same,dCMP,[1],0.07117
same,dTDP,[1],-1.878
same,dTMP,[1],-1.688
same,dTTP,[1],-1.338
same,dihydroorotate,[1],5.204
same,orotate,[1],-0.1277
same,DLH,[1],-0.04693
same,DLS/SDL/SID,[1],-0.2869
same,PD,[1],-0.04264
same,PEE,[1],-0.4454
same,PVNF,[1],-2.048
same,3-phosphoglycerate,[1],0.6242
same,ADP-D-glucose,[1],0.3573
same,ATP,[1],0.2564
same,CDP,[1],-1.841
same,D-sedoheptulose-1/7-phosphate,[1],-1.029
same,FAD,[1],0.0674
same,GMP,[1],1.676
same,NAD+,[1],0.1657
same,NADP+,[1],0.1196
same,Octoluse Bisphosphate,[1],-0.03706
same,Pyroglutamic acid,[1],0.9996
same,UDP-D-glucose,[1],0.07144
same,UDP-D-glucuronate,[1],-0.1808
same,UDP-N-acetyl-glucosamine,[1],-0.2701
same,UDP,[1],-2.466
same,UMP,[1],-0.6353
same,UTP,[1],-1.944
same,a-ketoglutarate,[1],0.866
same,citrate/isocitrate,[1],0.4908
same,cytidine,[1],0.5413
same,dATP,[1],0.5274
same,dGMP/AMP,[1],-0.3361
same,fumarate,[1],0.3957
same,glucose-1/6-phosphate,[1],0.221
same,glycerate,[1],0.7468
same,guanine,[1],0.4637
same,guanosine,[1],0.7901
same,hypoxanthine,[1],1.05
same,indole,[1],0.5756
same,inosine,[1],0.8159
same,2_3-Diphosphoglyceric acid,[1],-0.06901
same,4-phosphopantothenate,[1],-0.2542
same,6-phospho-D-gluconate,[1],0.0357
same,FMN,[1],-0.006391
same,IMP,[1],0.3439
same,Pyrophosphate,[1],-0.1345
same,Sedoheptoluse bisphosphate,[1],-0.0261
same,cyclic-AMP,[1],-0.1381
same,glutathione disulfide,[1],-0.07054
same,lactate,[1],0.415
same,myo-inositol,[1],-0.225
same,nicotinate,[1],0.9606
same,ornithine,[1],0.46
same,phosphoenolpyruvate,[1],0.911
same,pyruvate,[1],0.8605
same,ribose-phosphate,[1],0.2278
same,sarcosine/alanine,[1],0.199
same,sn-glycerol-3-phosphate,[1],0.01743
same,succinate/methylmalonic acid,[1],0.09628
same,uridine,[1],0.32
same,xanthosine,[1],1.135
same,EC50,P. falciparum,170 nM
Fc1ccc2[nH]c3c(NCCCN4CCOCC4)ncnc3c2c1 [MMV019871],Acetyllysine,[1],-0.8876
same,N-acetyl-L-ornithine,[1],-0.1209
same,N-carbamoyl-L-aspartate,[1],0.08503
same,NADPH,[1],0.6093
same,dAMP,[1],0.6696
same,dCMP,[1],-0.1368
same,dTDP,[1],0.799
same,dTMP,[1],0.8196
same,dTTP,[1],0.3182
same,dihydroorotate,[1],0.6163
same,orotate,[1],0.06699
same,DLH,[1],-1.437
same,DLS/SDL/SID,[1],-0.7695
same,PD,[1],-0.933
same,PEE,[1],-0.4641
same,PVNF,[1],-1.358
same,3-phosphoglycerate,[1],-0.4045
same,ADP-D-glucose,[1],-0.2501
same,ATP,[1],-0.2422
same,CDP,[1],0.8712
same,D-sedoheptulose-1/7-phosphate,[1],0.6203
same,FAD,[1],-0.1788
same,GMP,[1],0.008366
same,NAD+,[1],-0.1288
same,NADP+,[1],-0.2271
same,Octoluse Bisphosphate,[1],-0.5075
same,Pyroglutamic acid,[1],0.06535
same,UDP-D-glucose,[1],-0.1274
same,UDP-D-glucuronate,[1],-0.1958
same,UDP-N-acetyl-glucosamine,[1],-0.09954
same,UDP,[1],0.8844
same,UMP,[1],-0.5999
same,UTP,[1],-0.2069
same,a-ketoglutarate,[1],-0.1645
same,citrate/isocitrate,[1],-0.2521
same,cytidine,[1],-0.343
same,dATP,[1],-0.2053
same,dGMP/AMP,[1],0.4546
same,fumarate,[1],-0.6533
same,glucose-1/6-phosphate,[1],-0.1277
same,glycerate,[1],-0.2409
same,guanine,[1],0.2236
same,guanosine,[1],0.1132
same,hypoxanthine,[1],0.02159
same,indole,[1],-0.3008
same,inosine,[1],0.02443
same,2_3-Diphosphoglyceric acid,[1],-0.241
same,4-phosphopantothenate,[1],-0.03538
same,6-phospho-D-gluconate,[1],-0.1618
same,FMN,[1],0.07605
same,IMP,[1],0.1512
same,Pyrophosphate,[1],-0.1841
same,Sedoheptoluse bisphosphate,[1],-0.3231
same,cyclic-AMP,[1],-0.2059
same,glutathione disulfide,[1],-0.2521
same,lactate,[1],0.01945
same,myo-inositol,[1],0.08413
same,nicotinate,[1],0.1601
same,ornithine,[1],0.04638
same,phosphoenolpyruvate,[1],-0.3024
same,pyruvate,[1],0.2194
same,ribose-phosphate,[1],-0.9686
same,sarcosine/alanine,[1],-0.2747
same,sn-glycerol-3-phosphate,[1],-0.2288
same,succinate/methylmalonic acid,[1],-0.1938
same,uridine,[1],0.09395
same,xanthosine,[1],-0.4756
same,EC50,P. falciparum,345 nM
